Assay: RP, Thermo Scientific Hypersil GOLD, 5 × 2.1 mm, 1.9 µm, 45 °C, 0.25 mL/min, estimated dead time 0.044 min; A: water + 0.1% formic acid, pH 3; B: 50% acetonitrile + 50% isopropanol + 0.1% formic acid, pH 3; gradient (min/%B) 0/5 0.5/5 5/50 5.5/95 6.5/95 10/5
Conditions: stereoisomer not certain
With `CCC=CCC=CCC=CCCCCCCCC(=O)OCC(O)COP(=O)([O-])OCC[N+](C)(C)C` (stereo not given) [lysoPC(18:3)] the LC retention time was 6.59 min.
In the case of `CCCCCC=CCC=CCC=CCC=CCCCC(=O)OC(COC(=O)CCCCCCCCCCCCCCC)COP(=O)(O)OCC[N+](C)(C)C` (stereo not given) [PC(36:4)], the LC retention time is reported as 7.43 min.
Work on `CCCCCC=CCC=CCC=CCC=CCCCC(=O)OC(COC(=O)CCCCCCCCCCCCC)COP(=O)([O-])OCC[N+](C)(C)C` (stereo not given) [PC(34:4)] yielded an LC retention time of 6.97 min.
For `CCC=CCC=CCC=CCC=CCC=CCC=CCCC(=O)OC(COC(=O)CCCCCCCCCCCCCCC)COP(=O)([O-])OCC[N+](C)(C)C` (stereo not given) [PC(38:6)], the LC retention time was 7.39 min.
For `CCCCCC=CCC=CCC=CCC=CCCCCCC(=O)OC(COC(=O)CCCCCCCCCCCCCCC)COP(=O)([O-])OCC[N+](C)(C)C` (stereo not given) [PC(38:4)], the LC retention time was 7.4 min.
With `CCCCCC=CCC=CCC=CCC=CCCCC(=O)OC(COC(=O)CCCCCC=CCCCCCCCC)COP(=O)([O-])OCC[N+](C)(C)C` (stereo not given) [PC(36:5)] the LC retention time was 7.38 min.
In the case of `CCC=CCC=CCC=CCC=CCC=CCC=CCCC(=O)OC(COC(=O)CCCCCC=CCCCCCCCC)COP(=O)([O-])OCC[N+](C)(C)C` (stereo not given) [PC(38:7)], the LC retention time is reported as 7.37 min.
For `CCCCCCC=CCCCCCCCC(=O)OCC(O)COP(=O)([O-])OCC[N+](C)(C)C` (stereo not given) [lysoPC(16:1)], the LC retention time was 6.67 min.
With `CCCCCC=CCC=CCC=CCCCCC(=O)OCC(COP(=O)([O-])OCC[N+](C)(C)C)OC(=O)CCCCCCCCCCCCCCCCCCC` (stereo not given) [PC(38:3)] the LC retention time was 7.4 min.
In the case of `CCCCCC=CCC=CCCCCCCCC(=O)OCC(O)COP(=O)([O-])OCC[N+](C)(C)C` (stereo not given) [lysoPC(18:2)], the LC retention time is reported as 6.72 min.
`CCCCCCCCC=CCCCCCCCC(=O)OC(COC(=O)CCCCCCCCCCCCCCC)COP(=O)([O-])OCC[N+](C)(C)C` (stereo not given) [PC(34:1)] showed an LC retention time of 7.23 min.
With `CCCCCCCCCCCCCC(=O)OCC(O)COP(=O)([O-])OCC[N+](C)(C)C` (stereo not given) [lysoPC(14:0)] the LC retention time was 6.62 min.
`CCCCCCCCCCCCCCCC(=O)OCC(O)COP(=O)([O-])OCC[N+](C)(C)C` (stereo not given) [lysoPC(16:0)] showed an LC retention time of 6.89 min.
For `CCC=CCC=CCC=CCCCCCCCC(=O)OC(COC(=O)CCCCCCCCCCCCCCC)COP(=O)([O-])OCC[N+](C)(C)C` (stereo not given) [PC(34:3)], the LC retention time was 7.4 min.
Compound `CCCCCC=CCC=CCC=CCC=CCCCC(=O)OCC(O)COP(=O)([O-])OCC[N+](C)(C)C` (stereo not given) [lysoPC(20:4)] has an LC retention time of 6.69 min.
Compound `CCCCCC=CCC=CCCCCCCCCCC(=O)OC(COC(=O)CCCCCCCCCCCCC)COP(=O)([O-])OCC[N+](C)(C)C` (stereo not given) [PC(34:2)] has an LC retention time of 6.89 min.
In the case of `CCCCCC=CCC=CCC=CCC=CCC=CCCC(=O)OC(COC(=O)CCCCCCCCCCCCCCC)COP(=O)([O-])OCC[N+](C)(C)C` (stereo not given) [PC(38:5)], the LC retention time is reported as 7.41 min.
`CCCCCCCCCCCCCCCCCC(=O)OCC(O)COP(=O)(O)OCCN` (stereo not given) [lysoPE(18:0)] showed an LC retention time of 6.75 min.
For `CCCCCC=CCC=CCC=CCC=CCC=CCCC(=O)OC(COC(=O)CCCCCCCCCCCCCCCCC)COP(=O)([O-])OCC[N+](C)(C)C` (stereo not given) [PC(40:5)], the LC retention time was 7.4 min.
`CCCCCC=CCC=CCC=CCC=CCCCCCC(=O)OCC(COP(=O)([O-])OCC[N+](C)(C)C)OC(=O)CCCCC=CCC=CCC=CCCCCC` (stereo not given) [PC(40:7)] showed an LC retention time of 7.4 min.
Compound `CCC=CCC=CCC=CCC=CCC=CCCCC(=O)OCC(O)COP(=O)([O-])OCC[N+](C)(C)C` (stereo not given) [lysoPC(20:5)] has an LC retention time of 6.55 min.
Work on `CCCCCCCCCCCCCC=CC(O)C(COP(=O)([O-])OCC[N+](C)(C)C)NC(=O)CCCCCCCCCCCCCC` (stereo not given) [SM(33:1)] yielded an LC retention time of 6.69 min.
Work on `CCCCCCCCC=CCCCCCCCC(=O)OCC(O)COP(=O)([O-])OCC[N+](C)(C)C` (stereo not given) [lysoPC(18:1)] yielded an LC retention time of 6.93 min.
For `CCCCCCCCC=CCCCCCCCC(=O)OCC(O)COP(=O)(O)OCCN` (stereo not given) [lysoPE(18:1)], the LC retention time was 6.92 min.
With `CCCCCCCCC=CCCCCCCCCOCC(O)COP(=O)([O-])OCC[N+](C)(C)C` (stereo not given) [lysoPC(O-18:1)] the LC retention time was 7.1 min.
In the case of `CCCCCCCCC=CCC=CCC=CCCCC(=O)OCC(O)COP(=O)([O-])OCC[N+](C)(C)C` (stereo not given) [lysoPC(20:3)], the LC retention time is reported as 6.8 min.
`CCC=CCC=CCC=CCC=CCC=CCC=CCCC(=O)OCC(O)COP(=O)([O-])OCC[N+](C)(C)C` (stereo not given) [lysoPC(22:6)] gave an LC retention time of 6.65 min.
For `CCCCCCCCCCCCCCCCOCC(O)COP(=O)([O-])OCC[N+](C)(C)C` (stereo not given) [lysoPC(O-16:0)], the LC retention time was 7.08 min.
`CCC=CCC=CCC=CCC=CCC=CCC=CCCC(=O)OC(COC(=O)CCCCCCCCCCCCCCCCC)COP(=O)([O-])OCC[N+](C)(C)C` (stereo not given) [PC(40:6)] showed an LC retention time of 7.14 min.
`CCCCCC=CCC=CCC=CCC=CCCCC(=O)OCC(O)COP(=O)(O)OCCN` (stereo not given) [lysoPE(20:4)] showed an LC retention time of 6.69 min.

Source: the RepoRT retention time repository (doi:10.1002/rcm.4015)
